Where two headings read alike, the source gives them in different places. Square brackets hold non-standard residues; d marks the D form. Peptide text beside a SMILES is read from it.
What was measured:
[1] = tested on: Enterobacter cloacae clinical strains; format: cell-based; set-up: Minimum inhibitory concentration: unit: μg/ml; conditions: microdilution, Muller Hinton broth-cation adjusted, 0.02% BSA, 0.2% acetic acid
Experimental: (§1) Minimum inhibition concentrations (MICs) were determined against Escherichia coli (ATCC 25922), Staphylococcus aureus (ATCC 25923), Klebsiella pneumoniae (ATCC 10031) and Pseudomonas aeruginosa (ATCC 27853). Also clinical strains of E. coli, K. pneumoniae, E. cloacae, P. aeruginosa, Serratia marcescens, Proteus mirabilis, S. pneumoniae, Acinetobacter baumannii, A. johnsonii and S. aureus were used for MICs assays. Additionally, clinical strains of yeast including Candida albicans, C. glabrata, C. parapsilosis and C. quillermondiae were used. The susceptibility of these microorganisms to Chain peptides were determined using micro broth dilution assay. Colonies of the respective microorganism from Muller Hinton (MH) agar plates incubated overnight were suspended in MH broth media and final concentration of microorganism was adjusted to 5.0×10^5 cfu/ml. An aliquot of 10 μl of each Chain peptide, or gentamicin, tetracycline as reference antibiotics were added in differing concentrations along with 90 μl of bacterial suspension to 96 well polypropylene plates and incubated at 37° C. for 20 to 24 hours. Concentrations of Chain peptides and reference antibiotics ranged from 0.125 to 128 μg/ml and the MICs were recorded as the lowest concentration with no visual growth of bacteria. Similarly, antifungal MICs were tested in Potato dextrose broth.
(§2) Clinical strains of yeasts including Candida albicans, C. glabrata, C. parapsilosis and C. quillermondiae were also tested with the 12 Chain peptides. The minimum inhibitory concentration (MICs) varied between these peptides and are presented in Tables 4a, 4b, 4c and 5a, 5b, 5c. Peptides Chain 105, 201 and 308 are broad spectrum antimicrobials with MICs between 0.5-32 μg/ml against all the bacteria and yeasts tested, except Serratia marcescens and Proteus mirabilis, against which the MICs were between 64-128 μg/ml. Peptide Chain 306 has narrow spectrum activity against E. coli at 1 μg/ml and for the rest of the bacterial strains at >32 μg/ml (FIG. 10c).

[2] = tested on: Proteus mirabilis clinical strains; format: cell-based; set-up: Minimum inhibitory concentration: unit: μg/ml; conditions: microdilution, Muller Hinton broth-cation adjusted, 0.02% BSA, 0.2% acetic acid
Experimental: as §1, §2

[3] = tested on: Serratia marcescens clinical strains; format: cell-based; set-up: Minimum inhibitory concentration: unit: μg/ml; conditions: microdilution, Muller Hinton broth-cation adjusted, 0.02% BSA, 0.2% acetic acid
Experimental: as §1, §2

[4] = tested on: Staphylococcus aureus clinical strains; format: cell-based; set-up: Minimum inhibitory concentration: unit: μg/ml; conditions: microdilution, Muller Hinton broth-cation adjusted, 0.02% BSA, 0.2% acetic acid
Experimental: as §1, §2

[5] = tested on: Streptococcus pneumoniae clinical strains; format: cell-based; set-up: Minimum inhibitory concentration: unit: μg/ml; conditions: microdilution, Muller Hinton broth-cation adjusted, 0.02% BSA, 0.2% acetic acid
Experimental: as §1, §2

[6] = tested on: Candida albicans clinical strains; assay: MIC, clinical yeast strains; format: cell-based; set-up: unit: μg/ml
In short: (§3)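 Antifungal testing uses potato dextrose broth; antibacterial testing uses Mueller Hinton broth. Cell density is set to 5.0×10^5 cfu/ml and incubation runs 20–24 h at 37° C. MIC is the lowest concentration, within 0.125–128 μg/ml, at which no growth is visible.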

[7] = tested on: C. glabrata clinical strains; assay: MIC, clinical yeast strains; format: cell-based, Candida glabrata; set-up: unit: µg/ml
In short: as §3

[8] = tested on: C. parapsilosis clinical strains; assay: MIC, clinical yeast strains; format: cell-based, Candida parapsilosis; set-up: unit: µg/ml
In short: as §3

[9] = tested on: C. quillermondiae clinical strains; assay: MIC, clinical yeast strains; format: cell-based, Candida quillermondiae; set-up: unit: μg/ml; conditions: C. quillermondiae clinical yeast strain 1
In short: as §3

[10] = tested on: Escherichia coli clinical strains; format: cell-based; conditions: microdilution, Muller Hinton broth-cation adjusted, 0.02% BSA, 0.2% acetic acid
Experimental: as §1, §2

[11] = tested on: Klebsiella pneumoniae clinical strains; format: cell-based; conditions: microdilution, Muller Hinton broth-cation adjusted, 0.02% BSA, 0.2% acetic acid
Experimental: as §1, §2

[12] = tested on: Pseudomonas aeruginosa clinical strains; format: cell-based; conditions: microdilution, Muller Hinton broth-cation adjusted, 0.02% BSA, 0.2% acetic acid
Experimental: as §1, §2

Structure (SMILES): CC(C)C[C@@H](NC(=O)[C@@H](Cc1c[nH]c2ccccc12)NC(=O)[C@@H](Cc1ccccc1)NC(=O)[C@@H](Cc1c[nH]c2ccccc12)NC(=O)[C@@H](CCCCN)NC(=O)[C@@H](CCCNC(=N)N)NC(=O)[C@H](N)Cc1c[nH]c2ccccc12)C(=O)N[C@H](Cc1ccccc1)C(=O)N[C@H](CCCCN)C(=O)N[C@H](CCCCN)C(=O)N[C@H](CCCNC(=N)N)C(=O)O [Chain309D] (H-[dW][dR][dK][dW][dF][dW][dL][dF][dK][dK][dR]-OH)
- Minimum inhibitory concentration ([1]; Enterobacter cloacae clinical strain 1): >128
- Minimum inhibitory concentration ([1]; Enterobacter cloacae clinical strain 2): 128
- Minimum inhibitory concentration ([1]; Enterobacter cloacae clinical strain 3): 64
- Minimum inhibitory concentration ([1]; Enterobacter cloacae clinical strain 4): 64
- Minimum inhibitory concentration ([1]; Enterobacter cloacae clinical strain 5): 32
- Minimum inhibitory concentration ([2]; Proteus mirabilis clinical strain 1): >128
- Minimum inhibitory concentration ([2]; Proteus mirabilis clinical strain 2): >128
- Minimum inhibitory concentration ([2]; Proteus mirabilis clinical strain 3): >128
- Minimum inhibitory concentration ([2]; Proteus mirabilis clinical strain 4): >128
- Minimum inhibitory concentration ([2]; Proteus mirabilis clinical strain 5): >128
- Minimum inhibitory concentration ([3]; Serratia marcescens clinical strain 1): >128
- Minimum inhibitory concentration ([3]; Serratia marcescens clinical strain 2): >128
- Minimum inhibitory concentration ([3]; Serratia marcescens clinical strain 3): >128
- Minimum inhibitory concentration ([3]; Serratia marcescens clinical strain 4): >128
- Minimum inhibitory concentration ([3]; Serratia marcescens clinical strain 5): >128
- Minimum inhibitory concentration ([4]; Staphylococcus aureus clinical strain 1): 8
- Minimum inhibitory concentration ([4]; Staphylococcus aureus clinical strain 2): 16
- Minimum inhibitory concentration ([4]; Staphylococcus aureus clinical strain 3): 8
- Minimum inhibitory concentration ([4]; Staphylococcus aureus clinical strain 4): 8
- Minimum inhibitory concentration ([4]; Staphylococcus aureus clinical strain 5): 8
- Minimum inhibitory concentration ([5]; Streptococcus pneumoniae clinical strain 1): 64
- Minimum inhibitory concentration ([5]; Streptococcus pneumoniae clinical strain 2): 64
- Minimum inhibitory concentration ([5]; Streptococcus pneumoniae clinical strain 3): 64
- Minimum inhibitory concentration ([5]; Streptococcus pneumoniae clinical strain 4): 64
- Minimum inhibitory concentration ([5]; Streptococcus pneumoniae clinical strain 5): 64
- Minimum inhibitory concentration ([6]; Candida albicans clinical yeast strain 1): 32
- Minimum inhibitory concentration ([6]; Candida albicans clinical yeast strain 2): 32
- Minimum inhibitory concentration ([6]; Candida albicans clinical yeast strain 3): 16
- Minimum inhibitory concentration ([6]; Candida albicans clinical yeast strain 4): 16
- Minimum inhibitory concentration ([6]; Candida albicans clinical yeast strain 5): 32
- Minimum inhibitory concentration ([7]; C. glabrata clinical yeast strain 1): 32
- Minimum inhibitory concentration ([7]; C. glabrata clinical yeast strain 2): 64
- Minimum inhibitory concentration ([7]; C. glabrata clinical yeast strain 3): 4
- Minimum inhibitory concentration ([7]; C. glabrata clinical yeast strain 4): 128
- Minimum inhibitory concentration ([8]; C. parapsilosis clinical yeast strain 1): 64
- Minimum inhibitory concentration ([8]; C. parapsilosis clinical yeast strain 2): 64
- Minimum inhibitory concentration ([8]; C. parapsilosis clinical yeast strain 3): 32
- Minimum inhibitory concentration ([8]; C. parapsilosis clinical yeast strain 4): 16
- Minimum inhibitory concentration [9]: 8
- Minimum inhibitory concentration ([10]; Escherichia coli clinical strain 1): 0.5
- Minimum inhibitory concentration ([10]; Escherichia coli clinical strain 2): 32
- Minimum inhibitory concentration ([10]; Escherichia coli clinical strain 3): 16
- Minimum inhibitory concentration ([10]; Escherichia coli clinical strain 4): 32
- Minimum inhibitory concentration ([10]; Escherichia coli clinical strain 5): 16
- Minimum inhibitory concentration ([11]; Klebsiella pneumoniae clinical strain 1): 128
- Minimum inhibitory concentration ([11]; Klebsiella pneumoniae clinical strain 2): 32
- Minimum inhibitory concentration ([11]; Klebsiella pneumoniae clinical strain 3): >128
- Minimum inhibitory concentration ([11]; Klebsiella pneumoniae clinical strain 4): 32
- Minimum inhibitory concentration ([11]; Klebsiella pneumoniae clinical strain 5): 128
- Minimum inhibitory concentration ([12]; Pseudomonas aeruginosa clinical strain 1): 16
- Minimum inhibitory concentration ([12]; Pseudomonas aeruginosa clinical strain 2): 32
- Minimum inhibitory concentration ([12]; Pseudomonas aeruginosa clinical strain 3): 16
- Minimum inhibitory concentration ([12]; Pseudomonas aeruginosa clinical strain 4): 32
- Minimum inhibitory concentration ([12]; Pseudomonas aeruginosa clinical strain 5): 8

From US10457709B2, “Antimicrobial peptides, their variants and uses” (priority 2015, dated 2019)
